Measurements from patent US20260068882A1, “ARTHROPOD CONTROLLING COMPOSITION” (Firmenich SA, priority 2019, published 2026).

Key:
Aedes aegypti = assay: In vitro Warm Body assay, mosquitoes landing on treated warm body; type: in vivo
How it was run: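 Adapted Warm Body assay with host-seeking, non-blood-fed, sugar-fed A. aegypti Rockefeller females aged 5–10 days (10–12 days in one set); cages held 30 (or 25) females at 150 lux. Landings were counted automatically. Doses in ethanol were 0.0016%, 0.04% and 1% in triplicate, or a single replicate across 0.0016–1%.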

Ixodes ricinus = assay: In vitro Warm Plate Assay for ticks; type: in vivo; details: Ixodes ricinus, read-out: percentage of ticks affected on the Warm Plate
How it was run: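 Repellency against last-stage Ixodes ricinus nymphs in an in vitro warm plate assay, compounds diluted in ethanol at 0.4 and 10 mg/mL, 0.0016% to 1%, or 20% (w/w). Ticks walking down or falling from the treated plate scored as affected, walking up as unaffected; groups of 12 ticks, n=2-5.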

CCCCC[C@@H]1C(=O)CC[C@@H]1CC(=O)OC [ingredient #4, (+)-methyl (1R)-cis-3-oxo-2-pentyl-1-cyclopentaneacetate, reference compound]
number of mosquitoes landed on the Warm Body (Aedes aegypti; 0.0016% in ethanol (Table 7, one replicate)): 66 | number of mosquitoes landed on the Warm Body (Aedes aegypti; 0.008% in ethanol (Table 7, one replicate)): 53 | number of mosquitoes landed on the Warm Body (Aedes aegypti; 0.04% in ethanol (Table 7, one replicate)): 16 | number of mosquitoes landed on the Warm Body (Aedes aegypti; 0.2% in ethanol (Table 7, one replicate)): 17 | number of mosquitoes landed on the Warm Body (Aedes aegypti; 1% in ethanol (Table 7, one replicate)): 4 | pest or weed control at 0.0016 % (Ixodes ricinus): 15% | pest or weed control at 0.0053 % (Ixodes ricinus): 17% | pest or weed control at 0.008 % (Ixodes ricinus): 8% | pest or weed control at 0.0119 % (Ixodes ricinus): 0% | pest or weed control at 0.0178 % (Ixodes ricinus): 33% | pest or weed control at 0.0267 % (Ixodes ricinus): 36% | pest or weed control at 0.04 % (Ixodes ricinus): 92% | pest or weed control at 0.0598 % (Ixodes ricinus): 100% | pest or weed control at 0.089 % (Ixodes ricinus): 100% | pest or weed control at 0.2 % (Ixodes ricinus): 100% | pest or weed control at 0.447 % (Ixodes ricinus): 92% | pest or weed control at 1 % (Ixodes ricinus): 100%
